# Several values for one entry are separate records, joined by “and”; a condition that tells them apart may be missing. Identical values can stand only once.
# How the values were obtained:
# [1] = system: HT29 human colon cancer cells; assay: Proliferation assay (MTT) on HT29 cells; assay type: cell-based; conditions: 1 μg/ml, HT29, 96 h
# Protocol: The HT29 cells were maintained in McCoy's Media containing 10% (v/v) fetal bovine serum (FBS) (Gibco BRL) at 37° C., 5% C02.
# (§1) MTT assay: the MTT {3-(4,5-dimethyl-2-thiazol)-2,5-diphenyl-2H tetrazolilum bromide} (Dojindo; Tokyo, Japan) cell proliferation assay system (Roche Diagnostic, Mannheim, Germany) was used to determine the sensitivity of the various cell lines to agents. Cells were seeded at 1×10^4 cells/well in 96-well plates and allowed to attach for 24 h. The medium was replaced with fresh medium containing DMSO or compound. The cells were treated for 96 or 120 h, after which they were incubated with MTT reagents and the absorbance read at 650 and 575 nm. For cell growth assays, the data are expressed as mean+/−standard deviation. Control and treated cells were compared using the student's t-test (p<0.05).
# HT29 (p53 positive human colon cancer cells), as well as MDA-MB-453 Her2 overexpressing ER-negative human breast cancer cells are treated with increasing concentrations of the liposome carnosic acid complex and carnosic acid.
# Cells were exposed to increasing concentrations of agents for 96 h and the number of viable cells determined by the MTT assay.
# [2] = system: MCF7 (ER positive, Her2 low) cells; assay: MTT cell proliferation assay on MCF7 cells; assay type: cell-based; conditions: Homo sapiens, read-out: IC50 growth inhibition
# Protocol: (§2) MDA-MB-453 (ER negative, Her2 overexpressing), MDA-MB-468 (triple negative) and MCF7 (ER positive, Her2 low) cells, HT29 (p53 positive human colon cancer cells) (ATCC, Manassas, Va.) were grown in Dulbecco's Modified Eagle's medium (DMEM) (Gibco BRL Life Technologies, Inc., Rockville, Md.) containing 10% (v/v) fetal bovine serum (FBS) (Gibco BRL) at 37° C., 5% C02. SUM 149 (Her2 overexpressing, ER low) (the gift of Dr. R. Parsons, Columbia University Medical Center, New York, N.Y.) were cultivated in Ham's F-12 medium with 10% FBS. MCF7 and MCF7/Her2-18 (MCF7 cells transfected with a full length Her2 cDNA coding region, 45-fold increase Her2) were the kind gift of Dr. Dennis Slamon (Los Angeles, Calif.). These cells were maintained in RPMI supplemented with 10% FBS plus glutamine (1%) and PSF (1%) (Gibco, Rockville Md.).
# as §1, with “The medium was replaced with fresh medium containing DMSO or compound.” left out, “Control and treated cells were compared using the student's t-test (p<0.05).” left out
# [3] = system: MDA-MB-468 cells; assay: Real-time RT-PCR of specific mRNAs in MDA-MB-468 cells; assay type: cell-based, human; conditions: for increase in expression of RNA of CDKN1A: 4 μg/ml, MDA-MB-468
# Protocol: Real-time RT-PCR analysis was performed on 2 technical replicates of at least 2 biological sample replicates.
# Real-time quantitative RT-PCR methods were used to determine the nature of the RNA induced by treatment with CA, using the Real Time PCR machine Stratagene MX3005P QPCR System.
# Real-time RT-PCR analysis was performed to examine the mode of action of CA. In MDA-MB-468 cells, CA at 4 μg/ml induced an increase in expression of RNA of the tumor suppressor gene CDKN1A; for MDA-MB-468 cells (6 h: 1.51-logfold; 24 h: 1.61-logfold) (FIG. 3A); for SUM149 cells (6 h: 2.7-logfold). CA had little effect on the expression of the tumor suppressor gene BRCA1.
# [4] = system: MCF7/Her2-18 cells; assay: MTT cell proliferation assay on MCF7/Her2-18 cells; assay type: cell-based; conditions: Homo sapiens; MCF7/Her2-18 (45-fold increase Her2); read-out: IC50 growth inhibition
# Protocol: as §2
# as §1, with “The medium was replaced with fresh medium containing DMSO or compound.” left out, “Control and treated cells were compared using the student's t-test (p<0.05).” left out
# [5] = system: MDA-MB-453 human breast cancer cells; assay: Cell cycle analysis by DNA flow cytometry; assay type: cell-based; conditions: 48 h
# Protocol: For cell cycle analysis the cells were plated (3×105) onto 6 cm dishes and allowed to attach for 24 h. Then the medium was replaced with DMEM containing 10% FBS and DMSO or agents. After 48 h, the cells were analyzed by DNA flow cytometry.
# To examine the effects of rosemary on the cell cycle, MDA-MB-453 human breast cancer cells were treated with rosemary extract enriched for CA (50%) at 40 or 80 μg/ml and purified CA at 10, 20 or 40 μg/ml for 48 h. The cells were then stained with propidium iodide and the stained cells were analyzed by DNA flow cytometry (Table 1).
# MDA-MB-453 cells were treated with 0, 10, 20, or 40 μg/ml of carnosic acid or 40, 80 μg/ml of rosemary extract (carnosic acid: 50%), and analyzed at 48 hr by DNA flow cytometry. The values indicate the % of cells in the cell cycle phases.
# [6] = system: ER-negative SUM149 cells; assay: MTT cell proliferation assay on SUM149 cells; assay type: cell-based; conditions: read-out: IC50 growth inhibition
# Protocol: as §2
# as §1, with “The medium was replaced with fresh medium containing DMSO or compound.” left out, “Control and treated cells were compared using the student's t-test (p<0.05).” left out
# [7] = system: MDA-MB-453 Her2 overexpressing human breast cancer cells; assay: MTT cell proliferation assay on MDA-MB-453 cells; assay type: cell-based; conditions: for Proliferation (relative to control = 1) / % proliferation: MDA-MB-453, 96 h
structure (smiles),measurement,setting,value
CC(C)c1cc2c(c(O)c1O)[C@@]1(C(=O)O)CCCC(C)(C)[C@@H]1CC2 [carnosic acid],% proliferation,[1],99.3%
same,IC50,[2],25 µg/mL and 75 µM
same,increase in expression of RNA of CDKN1A,[3]; 6 h,1.51 logfold
same,increase in expression of RNA of CDKN1A,[3]; 24 h,1.61 logfold
same,effect on expression of the vitamin D receptor,"[3]; 6 h, real-time RT-PCR",slight increase in expression
same,effect on expression of BRCA1,[3]; real-time RT-PCR,little effect
same,effect on expression of CYP24A1,[3]; real-time RT-PCR,significant increase in expression
same,IC50,[4],9 µg/mL and 27 µM
same,% of Cells G1,[5]; 10 ug/ml,51.2%
same,% of Cells G2,[5]; 10 ug/ml,11.8%
same,% of Cells Sub G1,[5]; 10 ug/ml,1.5%
same,% of Cells S,[5]; 10 ug/ul,31.2%
same,% of Cells G1,[5]; 20 ug/ml,71.9%
same,% of Cells G2,[5]; 20 ug/ml,9.1%
same,% of Cells Sub G1,[5]; 20 ug/ml,1.7%
same,% of Cells S,[5]; 20 ug/ul,15.3%
same,% of Cells G1,[5]; 40 ug/ml,50.8%
same,% of Cells G2,[5]; 40 ug/ml,13.9%
same,% of Cells Sub G1,[5]; 40 ug/ml,1.6%
same,% of Cells S,[5]; 40 ug/ul,28.9%
same,IC50,[6],1.7 µg/mL and 5.1 µM
same,inhibition of cell growth,"[7]; 0.5 μg/ml, 96 h, MTT",no inhibition
same,Proliferation (relative to control = 1),"[7]; 0.5 ug/ml, MTT",1.07
same,% proliferation,"[7]; 0.5 μg/ml, MTT",107%
same,Proliferation (relative to control = 1),"[7]; 2 ug/ml, MTT",0.989
same,% proliferation,"[7]; 2 μg/ml, MTT",98.9%
same,Proliferation (relative to control = 1),"[7]; 5 ug/ml, MTT",0.915
same,% proliferation,"[7]; 5 μg/ml, MTT",91.5%
same,Proliferation (relative to control = 1),"[7]; 10 ug/ml, MTT",0.758
same,Proliferation (relative to control = 1),"[7]; 20 ug/ml, MTT",0.573
same,IC50,"[7]; Homo sapiens, MDA-MB-453 cells, MTT assay, read-out: IC50, concentration that caused 50% inhibition of cell proliferation",3 µg/mL and 7 µM
